Data from US9422285B2, “Substituted pyrazolo[1,5-A]-pyridine-3-carboxamides and use thereof” (Bayer Pharma Aktiengesellschaft, priority 2014, dated 2016).
Where a name gives a salt, the structure may show the parent alone.

Biological target: T1, recombinant guanylate cyclase reporter cell line (Rattus norvegicus, UniProt P19686+P20595)
T1 construct: expressed in transfected cells
T1 sequence (P19686 1-690): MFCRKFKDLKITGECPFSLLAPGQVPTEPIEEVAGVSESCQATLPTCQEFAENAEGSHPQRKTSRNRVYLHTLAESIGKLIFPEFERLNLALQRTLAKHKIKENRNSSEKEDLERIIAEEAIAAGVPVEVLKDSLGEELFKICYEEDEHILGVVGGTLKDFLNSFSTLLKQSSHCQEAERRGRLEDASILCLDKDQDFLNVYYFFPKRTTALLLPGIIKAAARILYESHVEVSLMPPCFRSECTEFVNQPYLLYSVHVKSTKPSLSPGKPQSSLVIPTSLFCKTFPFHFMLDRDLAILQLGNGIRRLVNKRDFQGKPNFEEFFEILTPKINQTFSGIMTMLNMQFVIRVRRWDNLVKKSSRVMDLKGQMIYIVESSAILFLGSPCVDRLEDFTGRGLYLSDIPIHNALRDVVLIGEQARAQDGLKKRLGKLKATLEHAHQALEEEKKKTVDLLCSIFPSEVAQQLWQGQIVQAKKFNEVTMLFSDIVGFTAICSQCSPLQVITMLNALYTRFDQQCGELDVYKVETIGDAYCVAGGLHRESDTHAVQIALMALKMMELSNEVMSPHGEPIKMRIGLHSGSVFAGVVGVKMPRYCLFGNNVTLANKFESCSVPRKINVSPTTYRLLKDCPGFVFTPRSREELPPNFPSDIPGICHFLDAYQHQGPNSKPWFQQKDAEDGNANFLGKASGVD
T1 sequence (P20595 1-619): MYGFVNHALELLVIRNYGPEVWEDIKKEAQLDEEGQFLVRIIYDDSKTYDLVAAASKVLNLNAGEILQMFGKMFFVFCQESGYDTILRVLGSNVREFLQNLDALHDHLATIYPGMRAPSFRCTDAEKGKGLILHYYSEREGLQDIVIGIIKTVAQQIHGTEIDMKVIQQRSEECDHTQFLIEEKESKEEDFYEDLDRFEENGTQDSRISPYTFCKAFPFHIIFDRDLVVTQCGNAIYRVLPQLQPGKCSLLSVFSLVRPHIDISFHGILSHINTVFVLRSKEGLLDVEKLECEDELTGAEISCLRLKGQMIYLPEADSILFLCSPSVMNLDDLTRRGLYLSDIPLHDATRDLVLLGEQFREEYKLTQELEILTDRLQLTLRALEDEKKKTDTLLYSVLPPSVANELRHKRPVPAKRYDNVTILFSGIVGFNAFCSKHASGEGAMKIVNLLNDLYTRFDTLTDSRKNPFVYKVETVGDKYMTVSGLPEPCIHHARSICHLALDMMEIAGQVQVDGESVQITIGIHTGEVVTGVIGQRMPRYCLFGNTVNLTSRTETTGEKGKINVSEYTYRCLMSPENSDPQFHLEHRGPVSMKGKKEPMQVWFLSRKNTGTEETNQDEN
Assay: Effect on a recombinant guanylate cyclase reporter cell line (B-2)
Type: cell-based
Conditions: in some cases mean values for individual determinations
Experimental: B-2. Effect on a Recombinant Guanylate Cyclase Reporter Cell Line
The cellular effect of the inventive compounds is determined using a recombinant guanylate cyclase reporter cell line, as described in F. Wunder et al., Anal. Biochem. 339, 104-112 (2005).
Representative MEC values (MEC=minimum effective concentration) for the inventive compounds are shown in the table below (in some cases as mean values for individual determinations): […]

Row | SMILES | MEC (minimum effective concentration) [µM]
1 | CCCC(C)(N)CNC(=O)c1c(C)nn2c(OCc3cccc(F)c3F)cc(C)cc12 (racemic) [Example 158, rac-N-(2-Amino-2-methylpentyl)-7-[(2,3-difluorobenzyl)oxy]-2,5-dimethylpyrazolo[1,5-a]pyridine-3-carboxamide] | 1.0
2 | Cc1cc(OCc2c(F)cccc2F)n2nc(C)c(C(=O)NNC(=O)CN(C)C)c2c1 [Example 67, 7-[(2,6-Difluorobenzyl)oxy]-N′-[(dimethylamino)acetyl]-2,5-dimethylpyrazolo[1,5-a]pyridine-3-carbohydrazide] | 3.0
3 | Cc1cc(OCc2c(F)ccc(F)c2F)n2nc(C)c(C(=O)N[C@@H](CO)C(=O)Nc3ccc4ccccc4c3)c2c1 [Example 7, N-[(2S)-3-Hydroxy-1-(2-naphthylamino)-1-oxopropan-2-yl]-2,5-dimethyl-7-[(2,3,6-trifluorobenzyl)oxy]pyrazolo[1,5-a]pyridine-3-carboxamide] | 1.0
4 | CCCC[C@@H](C)NC(=O)c1c(C)nn2c(OCc3c(F)cccc3F)cc(C)cc12 [Example 94, 7-[(2,6-Difluorobenzyl)oxy]-N-[(2R)-hexan-2-yl]-2,5-dimethylpyrazolo[1,5-a]pyridine-3-carboxamide] | 1.0
5 | Cc1cc(OCc2c(F)cccc2F)n2nc(C)c(C(=O)NCC(N)c3cccc(OCCO)c3)c2c1 (racemic) [Example 72, rac-N-{2-Amino-2-[3-(2-hydroxyethoxy)phenyl]ethyl]-7-[(2,6-difluorobenzyl)oxy]-2,5-dimethylpyrazolo[1,5-a]pyridine-3-carboxamide trifluoroacetate] | 10
6 | Cc1cc(OCc2c(F)ccc(F)c2F)n2nc(C)c(C(=O)NC3CC3c3ccccc3)c2c1 (racemic) [Example 10, rac-2,5-Dimethyl-N-(2-phenylcyclopropyl)-7-[(2,3,6-trifluorobenzyl)oxy]pyrazolo[1,5-a]pyridine-3-carboxamide] | 1.0
7 | Cc1cc(OCc2c(F)ccc(F)c2F)n2nc(C)c(C(=O)NCCN(CC(F)F)C3CC3)c2c1 [Example 26, N-{2-[Cyclopropyl(2,2-difluoroethyl)amino]ethyl]-2,5-dimethyl-7-[(2,3,6-trifluorobenzyl)oxy]pyrazolo[1,5-a]pyridine-3-carboxamide] | 0.3
8 | Cc1cc(OCc2c(F)cccc2F)n2nc(C)c(C(=O)NC(CN)c3ccc(F)c(F)c3)c2c1 (stereo not drawn) [Example 133, ent-N-[2-Amino-1-(3,4-difluorophenyl)ethyl]-7-[(2,6-difluorobenzyl)oxy]-2,5-dimethylpyrazolo[1,5-a]pyridine-3-carboxamide] | 0.3
9 | Cc1cc(OCc2c(F)ccc(F)c2F)n2nc(C)c(C(=O)NCc3ncc[nH]3)c2c1 [Example 18, N-(1H-Imidazol-2-ylmethyl)-2,5-dimethyl-7-[(2,3,6-trifluorobenzyl)oxy]pyrazolo[1,5-a]pyridine-3-carboxamide] | 3.0
10 | Cc1cc(OCc2c(F)ccc(F)c2F)n2nc(C)c(C(=O)NC3CC4CCCC(C3)N4C)c2c1 (centres unmarked) [Example 29, 2,5-Dimethyl-N-(9-methyl-9-azabicyclo[3.3.1]non-3-yl)-7-[(2,3,6-trifluorobenzyl)oxy]pyrazolo[1,5-a]pyridine-3-carboxamide] | 0.3
11 | Cc1cc(OCc2c(F)cccc2F)n2nc(C)c(C(=O)N[C@H](CO)c3ccc(C)o3)c2c1 [Example 178, 7-[(2,6-Difluorobenzyl)oxy]-N-[(1R)-2-hydroxy-1-(5-methyl-2-furyl)ethyl]-2,5-dimethylpyrazolo[1,5-a]pyridine-3-carboxamide] | 1.0
12 | Cc1cc(OCc2c(F)ccc(F)c2F)n2nc(C)c(C(=O)NCC(C)(N)C3CC3)c2c1 (racemic) [Example 13, rac-N-(2-Amino-2-cyclopropylpropyl)-2,5-dimethyl-7-[(2,3,6-trifluorobenzyl)oxy]pyrazolo[1,5-a]pyridine-3-carboxamide] | 1.0
13 | Cc1cc(OCc2c(F)ccc(F)c2F)n2nc(C)c(C(=O)Nc3c(C(F)(F)F)n[nH]c3C)c2c1 [Example 20, 2,5-Dimethyl-N-[5-methyl-3-(trifluoromethyl)-1H-pyrazol-4-yl]-7-[(2,3,6-trifluorobenzyl)oxy]pyrazolo[1,5-a]pyridine-3-carboxamide] | 0.3
14 | CCC(C)(N)CNC(=O)c1c(C)nn2c(OCc3c(F)cccc3F)cc(C)cc12 (single isomer, unassigned) [Example 2, ent-N-(2-Amino-2-methylbutyl)-7-[(2,6-difluorobenzyl)oxy]-2,5-dimethylpyrazolo[1,5-a]pyridine-3-carboxamide formate] | 0.3
15 | Cc1cc(OCc2c(F)cccc2F)n2nc(C)c(C(=O)NC3CCN(C)c4ccccc43)c2c1 (racemic) [Example 75, rac-7-[(2,6-Difluorobenzyl)oxy]-2,5-dimethyl-N-(1-methyl-1,2,3,4-tetrahydroquinolin-4-yl)pyrazolo a]pyridine-3-carboxamide trifluoroacetate] | 0.03
16 | Cc1cc(OCc2c(F)cccc2F)n2nc(C)c(C(=O)N[C@@H](CO)c3nnc([C@@H](N)C(C)C)o3)c2c1 [Example 179, N-[(1S)-1-{5-[(1S)-1-Amino-2-methylpropyl]-1,3,4-oxadiazol-2-yl}-2-hydroxyethyl]-7-[(2,6-difluorobenzyl)oxy]-2,5-dimethylpyrazolo[1,5-a]pyridine-3-carboxamide] | 10
17 | Cc1cc(OCc2c(F)cccc2F)n2nc(C)c(C(=O)NC3Cc4ccccc4C3N)c2c1 (centres unmarked) [Example 70, N-(1-Amino-2,3-dihydro-1H-inden-2-yl)-7-[(2,6-difluorobenzyl)oxy]-2,5-dimethylpyrazolo[1,5-a]pyridine-3-carboxamide] | 3.0
18 | Cc1cc(OCc2c(F)cccc2F)n2nc(C)c(C(=O)NNc3ccc(F)cc3)c2c1 [Example 66, 7-[(2,6-Difluorobenzyl)oxy]-N′-(4-fluorophenyl)-2,5-dimethylpyrazolo[1,5-a]pyridine-3-carbohydrazide trifluoroacetate] | 0.3
19 | Cc1cc(OCc2c(F)cccc2F)n2nc(C)c(C(=O)NC3CCCc4cc(F)ccc43)c2c1 (racemic) [Example 150, rac-7-[(2,6-Difluorobenzyl)oxy]-N-(6-fluoro-1,2,3,4-tetrahydronaphthalen-1-yl)-2,5-dimethylpyrazolo[1,5-a]pyridine-3-carboxamide] | 0.3
20 | CCCC(C)(N)CNC(=O)c1cnn2c(OCc3c(F)cccc3F)cc(C)cc12 (single isomer, unassigned) [Example 53, ent-N-(2-Amino-2-methylpentyl)-7-[(2,6-difluorobenzyl)oxy]-5-methylpyrazolo[1,5-a]pyridine-3-carboxamide] | 3.0
21 | CCCc1nn2c(OCc3c(F)cccc3F)cc(C)cc2c1C(=O)NCC(C)(N)CCC (single isomer, unassigned) [Example 51, ent-N-(2-Amino-2-methylpentyl)-7-[(2,6-difluorobenzyl)oxy]-5-methyl-2-propylpyrazolo[1,5-a]pyridine-3-carboxamide] | 1.0
22 | Cc1cc(OCc2c(F)cccc2F)n2nc(C)c(C(=O)NCC(C)(N)CCCF)c2c1 (single isomer, unassigned) [Example 45, ent-N-(2-Amino-5-fluoro-2-methylpentyl)-7-[(2,6-difluorobenzyl)oxy]-2,5-dimethylpyrazolo[1,5-a]pyridine-3-carboxamide] | 0.3
23 | Cc1cc(OCc2c(F)cccc2F)n2nc(C)c(C(=O)NCC(F)(F)CN)c2c1 [Example 81, N-(3-Amino-2,2-difluoropropyl)-7-[(2,6-difluorobenzyl)oxy]-2,5-dimethylpyrazolo[1,5-a]pyridine-3-carboxamide] | 1.0
